“Also recorded” adds a separate entry of the source. Read-outs that look alike come from different tables or passages of the source.
How the values were obtained:
[1] = cited from earlier work
[2] = system: influenza A/PR/8/34 (H1N1) followed by S. pneumoniae D39; test: Treatment study: sequential dual infection, oseltamivir begun 48 hours after influenza infection, pneumococcal challenge on day 7; assay type: in vivo, Balb/cByJ mice; conditions: for Survival (Mantel-Cox Chi-Squared test on Kaplan-Meier survival data): oseltamivir 10 mg/kg/day BID begun 48 h after influenza, until D39 challenge on day 7, p<0.01 vs water control; for Mean viral lung titer / Weight Loss (% of Baseline) / Mean bacterial lung titer: treatment study; for Mean bacterial lung titer: day 8, 24 hours after pneumococcal challenge
[3] = system: influenza A/PR/8/34 (H1N1) followed by S. pneumoniae D39; test: Chemoprophylaxis study: mice infected with influenza virus on day 0, oseltamivir begun 4 hours before infection, pneumococcal challenge on day 7; assay type: in vivo, Balb/cByJ mice; conditions: for Weight Loss (% of Baseline) / Mean viral lung titer: prophylaxis study

CC(=O)N[C@H]1[C@H]([C@H](O)[C@H](O)CO)OC(C(=O)O)=C[C@@H]1N=C(N)N [Zanamivir, zanamivir]
Fraction of inhaled drug that reaches the lungs ([1]; dry powder for inhalation): approx. 20%
Gastrointestinal absorption ([1]; in vivo): poorly absorbed
Half-life ([1]; in vivo): 2.5 to 5 h

CCOC(=O)C1=C[C@@H](OC(CC)CC)[C@H](NC(C)=O)[C@@H](N)C1 [oseltamivir, oseltamivir phosphate]
Half-life ([1]; oral): 6 to 10 h
Systemic bioavailability ([1]; oral): 80%
Lung histopathology ([2]; lung tissue on day 8, untreated controls: diffuse, severe infection disseminated throughout both lungs): lobar bronchopneumonia infection that is confined to defined regions of the lungs
Survival (Mantel-Cox Chi-Squared test on Kaplan-Meier survival data) [2]: significantly prolonged
Survival (Mantel-Cox Chi-Squared test on Kaplan-Meier survival data) ([2]; listed as Oseltamivir): prolongs survival
Median survival ([2]; oseltamivir group of the treatment study, control 1 day): 5 days
Weight lost by surviving mice, % of their day 7 weight ([2]; treatment group, in 48 hours after pneumococcal challenge, control 5%): 4%
Survival (number survived/total) ([2]; treatment group, control 0/9): 3/10
Mean viral lung titer ([2]; day 3): 6.8 log10
Weight Loss (% of Baseline) ([2]; day 3): 7.6 % of Baseline
Mean viral lung titer ([2]; day 3, listed as Oseltamivir): 6.84 log10
Mean viral lung titer ([2]; day 7): 5.4 log10
Weight Loss (% of Baseline) ([2]; day 7): 23 % of Baseline
Mean viral lung titer ([2]; day 7, listed as Oseltamivir): 5.42 log10
Mean bacterial lung titer [2]: 7.1 log10 CFU/ml
Mean bacterial lung titer ([2]; listed as Oseltamivir): 7.08 log10 CFU/ml
Survival (Mantel-Cox Chi-Squared test on Kaplan-Meier survival data) ([3]; oseltamivir 10 mg/kg/day BID for 5 days from 4 h before influenza, 100 TCID50 PR8 day 0, 100 CFU D39 day 7, p<0.005 vs water control): significantly prolonged; also recorded: prolongs survival
Median survival ([3]; prophylaxis group, after pneumococcal challenge, control <1 day): 7 days
Survival (number survived/total) ([3]; prophylaxis group, followed 21 days, control 0/10): 5/10
Weight lost by surviving mice, % of their day 7 weight ([3]; prophylaxis group, in 48 hours after pneumococcal challenge, control 9.5%): 7.5%
Weight Loss (% of Baseline) ([3]; day 3): 4.0 % of Baseline
Mean viral lung titer ([3]; day 3, log10/ml TCID50 in MDCK cells): 4.3 log10
Mean viral lung titer ([3]; day 3, log10/ml TCID50 in MDCK cells, listed as Oseltamivir): 4.32 log10
Weight Loss (% of Baseline) ([3]; day 7): 9 % of Baseline
Mean viral lung titer ([3]; day 7, before pneumococcal challenge, log10/ml TCID50): 3.84 log10
Weight Loss (% of Baseline) ([3]; day 7, listed as Oseltamivir): 8.7 % of Baseline

From patent publication US20040248825A1, “Use of neuraminidase inhibitors to prevent flu associated bacterial infections” (St. Jude Children's Research Hospital, priority 2001, published 2004)
